Assay results reported in PubChem BioAssay (NCI).
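How tested: cells in 96-well plates exposed to compound for 48 hours at five concentrations. The concentration for full growth arrest is given as TGI.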

Assays:
Assay in all cases: NCI tumour cell line growth inhibition, 48 h
HOP-92 NSCLC = system: HOP-92 NSCLC
TK-10 renal = system: TK-10 renal
SK-MEL-2 melanoma = system: SK-MEL-2 melanoma
PC-3 prostate = system: PC-3 prostate
A498 renal = system: A498 renal
OVCAR-4 ovarian = system: OVCAR-4 ovarian
SW-620 colon = system: SW-620 colon
CCRF-CEM leukemia = system: CCRF-CEM leukemia
UACC-257 melanoma = system: UACC-257 melanoma
BT-549 breast = system: BT-549 breast

Q: Which TGI (HOP-92 NSCLC) does the source give for COC(=O)c1ccc(NCC2=CC(=O)c3ccccc3C2=O)cc1 here?
A: 12.3 µM

Q: What about the TGI (TK-10 renal) of the same compound?
A: 37.1 µM

Q: And the TGI (SK-MEL-2 melanoma)?
A: 42.2 µM

Q: What about the TGI (PC-3 prostate) of the same compound?
A: 27.8 µM

Q: And the TGI (A498 renal)?
A: 54.2 µM

Q: What about the TGI (OVCAR-4 ovarian) of the same compound?
A: 29.1 µM

Q: What about the TGI (SW-620 colon) of the same compound?
A: 54.5 µM

Q: What about the TGI (CCRF-CEM leukemia) of the same compound?
A: > 100 µM

Q: What about the TGI (UACC-257 melanoma) of the same compound?
A: 29.4 µM

Q: And the TGI (BT-549 breast)?
A: 42.2 µM
